# Literature values as cited in patent US20060257502A1, “A COMBINATION OF MITOCHONDRIAL NUTRIENTS FOR RELIEVING STRESS, PREVENTING AND IMPROVING STRESS-RELATED DISORDERS” (priority 2005, published 2006).
# Tested on: rats
structure (smiles),measurement,value
"Oc1ccc(/C=C/c2cc(O)cc(O)c2)cc1 [Resveratrol, trans-3,5,4′-trihydroxystilbene]",No observed adverse effect level,300 mg per kilogram body weight per day
